Target: T1, MGL (Rattus norvegicus, UniProt Q8R431)
T1 construct: one g rat brain was homogenized
T1 sequence (Q8R431 1-303): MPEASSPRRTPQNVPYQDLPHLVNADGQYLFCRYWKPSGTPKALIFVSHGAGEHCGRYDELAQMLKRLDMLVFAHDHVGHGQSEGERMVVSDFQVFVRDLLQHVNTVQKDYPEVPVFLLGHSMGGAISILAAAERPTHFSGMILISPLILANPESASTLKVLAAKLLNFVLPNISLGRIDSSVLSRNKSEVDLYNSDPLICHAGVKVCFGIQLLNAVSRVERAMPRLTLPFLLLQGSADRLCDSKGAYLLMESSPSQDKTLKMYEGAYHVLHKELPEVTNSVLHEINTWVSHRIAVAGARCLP
Test: 2-AG Accumulation Assay (rat brain homogenate)
Format: biochemical
Conditions: percent of vehicle 2-AG accumulation; for Rat Brain 2AG % VehCntrl (%) @1 μM: compound 1 μM; for Rat Brain 2AG % VehCntrl (%) @10 μM: compound 10 μM

Compound	Rat Brain 2AG % VehCntrl (%) @1 μM	Rat Brain 2AG % VehCntrl (%) @10 μM
CC(=O)c1ccc(-c2ccc(C(=O)N3CC(N4CCN(C(=O)c5nccs5)CC4)C3)cc2)cc1 [Cpd 209, 1-[4′-({3-[4-(1,3-Thiazol-2-ylcarbonyl)piperazin-1-yl]azetidin-1-yl}carbonyl)biphenyl-4-yl]ethanone]	–	1681%
O=C(c1ccc2nc(-c3ccccc3)sc2c1)N1CC(N2CCN(C(=O)c3nccs3)CC2)C1 [Cpd 1125, 2-Phenyl-6-({3-[4-(1,3-thiazol-2-ylcarbonyl)piperazin-1-yl]azetidin-1-yl}carbonyl)-1,3-benzothiazole]	1228%	–
O=C(c1ccc(Oc2cccc(Cl)c2)c(F)c1)N1CC(N2CCN(C(=O)c3nccs3)CC2)C1 [Cpd 875]	–	1285%
O=C(c1ccc2c(-c3cccc(C(F)(F)F)c3)c[nH]c2c1)N1CC(N2CCN(C(=O)c3nccs3)CC2)C1 [Cpd 1341, 6-({3-[4-(1,3-Thiazol-2-ylcarbonyl)piperazin-1-yl]azetidin-1-yl}carbonyl)-3-[3-(trifluoromethyl)phenyl]-1H-indole]	1149%	–
Cc1c(Cc2ccc(C(F)(F)F)cc2)cccc1C(=O)N1CC(N2CCN(C(=O)c3nccs3)CC2)C1 [Cpd 1008]	1125%	–
O=C(c1ccc(-c2cccc(C(F)(F)F)c2)cc1)N1CC(N2CCN(C(=O)c3cscn3)CC2)C1 [Cpd 229, 1-(1,3-Thiazol-4-ylcarbonyl)-4-(1-{[3′-(trifluoromethyl)biphenyl-4-yl]carbonyl}azetidin-3-yl)piperazine]	–	1304%
O=C(c1ccc2c(ccn2-c2cccc(C(F)(F)F)c2)c1)N1CC(N2CCN(C(=O)c3cscn3)CC2)C1 [Cpd 1408, 5-({3-[4-(1,3-Thiazol-4-ylcarbonyl)piperazin-1-yl]azetidin-1-yl}carbonyl)-1-[3-(trifluoromethyl)phenyl]-1H-indole]	1475%	–
CC1(C)CCC(C)(C)c2cc(CCC(=O)N3CC(N4CCN(C(=O)c5nccs5)CC4)C3)ccc21 [Cpd 282, 1-{1-[3-(5,5,8,8-Tetramethyl-5,6,7,8-tetrahydronaphthalen-2-yl)propanoyl]azetidin-3-yl}-4-(1,3-thiazol-2-ylcarbonyl)piperazine]	–	1775%
O=C(c1ccc2c(c1)CCCN2Cc1ccc(C(F)(F)F)cc1)N1CC(N2CCN(C(=O)c3nccs3)CC2)C1 [Cpd 371, 6-({3-[4-(1,3-Thiazol-2-ylcarbonyl)piperazin-1-yl]azetidin-1-yl}carbonyl)-1-(4-trifluoromethylbenzyl)-1,2,3,4-tetrahydroquinoline]	1138%	–
O=C(c1nccs1)N1CCN(C2CN(C(=O)c3ccc(-c4cccc(C(F)(F)F)c4)cc3Cl)C2)CC1 [Cpd 250, 1-(1-{[3-Chloro-3′-(trifluoromethyl)biphenyl-4-yl]carbonyl}azetidin-3-yl)-4-(1,3-thiazol-2-ylcarbonyl)piperazine]	1011%	1327%
O=C(c1ccc(OCc2ccc(Cl)c(Cl)c2)c(F)c1)N1CC(N2CCN(C(=O)c3nccs3)CC2)C1 [Cpd 400, 1-[1-({4-[(3,4-Dichlorobenzyl)oxy]-3 fluorophenyl}carbonyl)azetidin-3-yl]-4-(1,3-thiazol-2-ylcarbonyl)piperazine]	–	1076%
O=C(c1ccc(OCc2cccc(Cl)c2Cl)c(F)c1)N1CC(N2CCN(C(=O)c3nccs3)CC2)C1 [Cpd 405, 1-[1-({4-[(2,3-Dichlorobenzyl)oxy]-3-fluorophenyl}carbonyl)azetidin-3-yl]-4-(1,3-thiazol-2-ylcarbonyl)piperazine]	–	1591%
O=C(c1ccc(OCc2cccc(Cl)c2)cc1)N1CC(N2CCN(C(=O)c3nccs3)CC2)C1 [Cpd 957]	1442%	–
O=C(c1ccc(-c2ccc(C(F)(F)F)cc2)cc1)N1CC(N2CCN(C(=O)c3nccs3)CC2)C1 [Cpd 150, 1-(1,3-Thiazol-2-ylcarbonyl)-4-(1-{[4′-(trifluoromethyl)biphenyl-4-yl]carbonyl}azetidin-3-yl)piperazine]	–	1104%
O=C(c1ccc(-c2nc(-c3ccccc3Cl)cs2)cc1)N1CC(N2CCN(C(=O)c3nccs3)CC2)C1 [Cpd 1328]	1086%	–
O=C(c1nccs1)N1CCN(C2CN(C(=O)c3ccc4c(ccn4-c4ccc(F)cc4)c3F)C2)CC1 [Cpd 1348, 4-Fluoro-1-(4-fluorophenyl)-5-({3-[4-(1,3-thiazol-2-ylcarbonyl)piperazin-1-yl]azetidin-1-yl}carbonyl)-1H-indole]	1428%	–
O=C(c1ccc(-c2ccc([N+](=O)[O-])cc2)cc1)N1CC(N2CCN(C(=O)c3nccs3)CC2)C1 [Cpd 215, 1-{1-[(4′-Nitrobiphenyl-4-yl)carbonyl]azetidin-3-yl}-4-(1,3-thiazol-2-ylcarbonyl)piperazine]	–	1091%
O=C(c1nccs1)N1CCN(C2CN(C(=O)c3sc4cc(C(F)(F)F)ccc4c3F)C2)CC1 [Cpd 895, 1-(1-{[3-Fluoro-6-(trifluoromethyl)-1-benzothiophen-2-yl]carbonyl}azetidin-3-yl)-4-(1,3-thiazol-2-ylcarbonyl)piperazine]	1207%	–
Cn1cc(-c2cccc(F)c2)c2ccc(C(=O)N3CC(N4CCN(C(=O)c5nccs5)CC4)C3)cc21 [Cpd 1142]	1314%	–
Cc1nc(-c2cccc(C(F)(F)F)c2)sc1C(=O)N1CC(N2CCN(C(=O)c3nccs3)CC2)C1 [Cpd 1407, 1-[1-({4-Methyl-2-[3-(trifluoromethyl)phenyl]-1,3-thiazol-5-yl}carbonyl)azetidin-3-yl]-4-(1,3-thiazol-2-ylcarbonyl)piperazine]	1287%	–
O=C(c1ccc2c(ccn2-c2ncccn2)c1)N1CC(N2CCN(C(=O)c3nccs3)CC2)C1 [Cpd 1174, 1-Pyrimidin-2-yl-5-({3-[4-(1,3-thiazol-2-ylcarbonyl)piperazin-1-yl]azetidin-1-yl}carbonyl)-1H-indole]	1021%	–

The remaining lines, values ahead:

Rat Brain 2AG % VehCntrl (%) @1 μM	Rat Brain 2AG % VehCntrl (%) @10 μM	Compound
2111%	–	O=C(c1ccc2c(-c3ccccc3)cccc2c1)N1CC(N2CCN(C(=O)c3nccs3)CC2)C1 [Cpd 338, 1-{1-[(5-Phenylnaphthalen-2-yl)carbonyl]azetidin-3-yl}-4-(1,3-thiazol-2-ylcarbonyl)piperazine]
1092%	–	Cc1c(C(=O)N2CC(N3CCN(C(=O)c4nccs4)CC3)C2)sc2cc(C(F)(F)F)ccc12 [Cpd 899, 1-(1-{[3-Methyl-6-(trifluoromethyl)-1-benzothiophen-2-yl]carbonyl}azetidin-3-yl)-4-(1,3-thiazol-2-ylcarbonyl)piperazine]
1014%	–	O=C(c1ccc2c(c1)CCN2Cc1ccccc1)N1CC(N2CCN(C(=O)c3nccs3)CC2)C1 [Cpd 994, 1-Benzyl-5-({3-[4-(1,3-thiazol-2-ylcarbonyl)piperazin-1-yl]azetidin-1-yl}carbonyl)-2,3-dihydro-1H-indole]
–	1608%	O=C(c1ccc(SCc2ccc(Cl)c(Cl)c2)cc1)N1CC(N2CCN(C(=O)c3nccs3)CC2)C1 [Cpd 414, 1-[1-({4-[(3,4-Dichlorobenzyl)sulfanyl]phenyl}carbonyl)azetidin-3-yl]-4-(1,3-thiazol-2-ylcarbonyl)piperazine]
–	1693%	O=C(c1ccc(SCc2cccc(Cl)c2Cl)cc1)N1CC(N2CCN(C(=O)c3nccs3)CC2)C1 [Cpd 413, 1-[1-({4-[(2,3-Dichlorobenzyl)sulfanyl]phenyl}carbonyl)azetidin-3-yl]-4-(1,3-thiazol-2-ylcarbonyl)piperazine]
1044%	1182%	O=C(c1ccc(-c2cccc(C(F)(F)F)c2)cc1)N1CC(N2CCN(C(=O)c3nccs3)CC2)C1 [Cpd 237, 1-(1,3-Thiazol-2-ylcarbonyl)-4-(1-{[3′-(trifluoromethyl)biphenyl-4-yl]carbonyl}azetidin-3-yl)piperazine]
–	1099%	O=C(c1ccc(-c2cccc(Cl)c2)cc1)N1CC(N2CCN(C(=O)c3nccs3)CC2)C1 [Cpd 162, 1-{1-[(3′-Chlorobiphenyl-4-yl)carbonyl]azetidin-3-yl}-4-(1,3-thiazol-2-ylcarbonyl)piperazine]
1259%	–	Cn1cc(-c2ccccc2)c2ccc(C(=O)N3CC(N4CCN(C(=O)c5nccs5)CC4)C3)cc21 [Cpd 1132, 1-Methyl-3-phenyl-6-({3-[4-(1,3-thiazol-2-ylcarbonyl)piperazin-1-yl]azetidin-1-yl}carbonyl)-1H-indole]
1133%	–	Cn1cc(-c2cccc(C(F)(F)F)c2)c2ccc(C(=O)N3CC(N4CCN(C(=O)c5nccs5)CC4)C3)cc21 [Cpd 1100]
1420%	–	O=C(c1ccc2c(ccn2-c2cccc(C(F)(F)F)c2)c1)N1CC(N2CCN(C(=O)c3nccs3)CC2)C1 [Cpd 1356, 5-({3-[4-(1,3-Thiazol-2-ylcarbonyl)piperazin-1-yl]azetidin-1-yl}carbonyl)-1-[3-(trifluoromethyl)phenyl]-1H-indole]
1282%	–	Cn1cc(-c2ccc(F)cc2)c2ccc(C(=O)N3CC(N4CCN(C(=O)c5nccs5)CC4)C3)cc21 [Cpd 1318, 3-(4-Fluorophenyl)-1-methyl-6-({3-[4-(1,3-thiazol-2-ylcarbonyl)piperazin-1-yl]azetidin-1-yl}carbonyl)-1H-indole]
1014%	–	Cn1cc(Cc2ccc(F)cc2)c2ccc(C(=O)N3CC(N4CCN(C(=O)c5nccs5)CC4)C3)cc21 [Cpd 1026]
–	1124%	Cc1cccc(-c2ccc(C(=O)N3CC(N4CCN(C(=O)c5nccs5)CC4)C3)cc2)c1 [Cpd 176, 1-{1-[(3′-Methylbiphenyl-4-yl)carbonyl]azetidin-3-yl}-4-(1,3-thiazol-2-ylcarbonyl)piperazine]

Reference: US8697683B2, “Azetidinyl diamides as monoacylglycerol lipase inhibitors” (Janssen Pharmaceutica, NV, priority 2009, dated 2014)
